The text below walks through data of patent US20230382923A1, “FUSED TETRACYCLIC QUINAZOLINE DERIVATIVES AS INHIBITORS OF ERBB2” (EnLiven Therapeutics, Inc., priority 2021, published 2023).

Experiment [1] addresses phosphorylated ERBB2 (pERBB2) (Homo sapiens (Human), UniProt P04626). Put plainly: Detection of phosphorylated ERBB2 (pERBB2) by ELISA in BT-474 cells. Format: cell-based. The note with it: four hours incubation with compound. How it is done: BT-474 cells were seeded into a 96-well at 2.0*10^4cells/100 μl/well. Compounds were dissolved and serially diluted in DMSO. The compounds were then were added, mixed, and incubated for four hours at 37° C., 5% CO2. […] Following the four hour incubation with compounds, cell lysates were prepared. Plates were centrifuged for 5 min at 3000 RPM, and supernatant was removed from each well. Cells were washed 3 times by resuspension in 150 μl PBS, followed by centrifugation and removal of the supernatant, as above. 100 μl of cell lysis buffer (Boston BioProducts, cat #BP-115D) supplied with 1×complete ULTRA cocktail inhibitor (Thermo ScientificTM, cat #78443) was then added to the washed cells. Cells were incubated with lysis buffer for 1 hour at 4° C., and then stored at -80° C. Enzyme-linked immunosorbent assays (ELISA) were performed to measure phosphorylated ERBB2 levels. […] The next day, plates were washed with PBS+0.05% Tween20 (PBST). 150 μl of 5% BSA blocking solution was added for 1 hour at room temperature, with shaking. Plates were washed with PBST. Cell lysates were thawed and 100 μl of lysate was added to the ELISA plate. The plates were incubated for 2 hours at room temperature, with shaking. ELISA plates were then washed with PBST and 100 μl of an HRP-labeled detection antibody that binds phosphorylated tyrosine (R&D Systems, cat #841913) was added to each well. Plates were incubated for 1 hour at room temperature, with shaking. Plates were then washed with PBST, and 100 μl TMB substrate solution (R&D Systems, cat #DY999) was added. Plate were incubated in the dark for 20 minutes at room temperature. 50 μl of Stop solution (R&D Systems, cat #DY994) (50 μl) was added to each well and mixed. […] The remaining kinase activity by calculated using the following formula: % Relative activity=100×([…]). The low and high control values (“LC” and “HC”) were generated from lysate from wells without cells or with cells treated with 0.1% DMSO, respectively.
In general terms: ELISA stands for enzyme-linked immunosorbent assay.

Experiment [2] concerns the target phosphorylated EGFR (pEGFR) (Homo sapiens (Human), UniProt P00533). Kind of experiment: Detection of phosphorylated EGFR (pEGFR) by AlphaLISA in A431 cells. In kind it is cell-based. The note with it: A431 cells (10% FBS), 4 hours incubation, EGF 30 ng/mL for 10 minutes. The protocol: […] were performed to measure phosphorylated EGFR levels using A431 cells (10% FBS). A431 (1.0*10^4cells/40 μl/well) cells were seeded in 384 well. Compounds were dissolved in DMSO, serially diluted in DMSO and then were added, mixed, and incubated for 4 hours at 37° C., […]. Following the 4-hours incubation, cells were stimulated for 10 minutes with EGF (Invitrogen, cat #PHG0311) at a final concentration of 30 ng/mL in the incubator. The media was aspirated and cells were lysed in 10 μL lysis buffer with protease and phosphatase inhibitors (PerkinElmer, cat #ALSU-PEGFR-A50K). The plates were placed on a shaker for 5 minutes and then incubated for 30 min at 4° C. for complete lysis. The lysate was transferred to an Optiplate (Perkin Elmer, cat #6007290).
Acceptor mix (PerkinElmer, cat #ALSU-PEGFR-A50K) was prepared just before use and 5 μL was dispensed to all the wells, followed by a 1.5-2 h incubation at room temperature in dark. The donor mix (PerkinElmer, cat #ALSU-PEGFR-A50K) was prepared under low light conditions prior to use and 5 μl of donor mix was added to all the wells under subdued lighting or green filters. The plates were placed on a shaker for 5 min, sealed, and incubated overnight at room temperature in dark. Plates were read on the Envision (PerkinElmer) using standard AlphaLISA settings.
The percentage of inhibition on EGFR phosphorylation was calculated following equation: % Inhibition=100×(LumHC−LumSample)/(LumHC−LumLC). The low and high controls (LC/HC) are generated from lysate from wells with cells treated with DMSO or […] Staurosporine (BioAustralis, cat #BIA-S1086), […]. IC50 values were calculated by fitting the Curve using XLfit (v5.3.1.3), equation 201: Y=Bottom+(Top−Bottom)/(1+10^((LogIC50−X)*HillSlope)).
A general note: In Alpha technology, singlet oxygen from a donor bead excites a nearby acceptor bead.

Broadly, the IC50 is the point on the concentration scale where inhibition reaches its midpoint.

phosphorylated ERBB2 (pERBB2), sequence (P04626 23-1255): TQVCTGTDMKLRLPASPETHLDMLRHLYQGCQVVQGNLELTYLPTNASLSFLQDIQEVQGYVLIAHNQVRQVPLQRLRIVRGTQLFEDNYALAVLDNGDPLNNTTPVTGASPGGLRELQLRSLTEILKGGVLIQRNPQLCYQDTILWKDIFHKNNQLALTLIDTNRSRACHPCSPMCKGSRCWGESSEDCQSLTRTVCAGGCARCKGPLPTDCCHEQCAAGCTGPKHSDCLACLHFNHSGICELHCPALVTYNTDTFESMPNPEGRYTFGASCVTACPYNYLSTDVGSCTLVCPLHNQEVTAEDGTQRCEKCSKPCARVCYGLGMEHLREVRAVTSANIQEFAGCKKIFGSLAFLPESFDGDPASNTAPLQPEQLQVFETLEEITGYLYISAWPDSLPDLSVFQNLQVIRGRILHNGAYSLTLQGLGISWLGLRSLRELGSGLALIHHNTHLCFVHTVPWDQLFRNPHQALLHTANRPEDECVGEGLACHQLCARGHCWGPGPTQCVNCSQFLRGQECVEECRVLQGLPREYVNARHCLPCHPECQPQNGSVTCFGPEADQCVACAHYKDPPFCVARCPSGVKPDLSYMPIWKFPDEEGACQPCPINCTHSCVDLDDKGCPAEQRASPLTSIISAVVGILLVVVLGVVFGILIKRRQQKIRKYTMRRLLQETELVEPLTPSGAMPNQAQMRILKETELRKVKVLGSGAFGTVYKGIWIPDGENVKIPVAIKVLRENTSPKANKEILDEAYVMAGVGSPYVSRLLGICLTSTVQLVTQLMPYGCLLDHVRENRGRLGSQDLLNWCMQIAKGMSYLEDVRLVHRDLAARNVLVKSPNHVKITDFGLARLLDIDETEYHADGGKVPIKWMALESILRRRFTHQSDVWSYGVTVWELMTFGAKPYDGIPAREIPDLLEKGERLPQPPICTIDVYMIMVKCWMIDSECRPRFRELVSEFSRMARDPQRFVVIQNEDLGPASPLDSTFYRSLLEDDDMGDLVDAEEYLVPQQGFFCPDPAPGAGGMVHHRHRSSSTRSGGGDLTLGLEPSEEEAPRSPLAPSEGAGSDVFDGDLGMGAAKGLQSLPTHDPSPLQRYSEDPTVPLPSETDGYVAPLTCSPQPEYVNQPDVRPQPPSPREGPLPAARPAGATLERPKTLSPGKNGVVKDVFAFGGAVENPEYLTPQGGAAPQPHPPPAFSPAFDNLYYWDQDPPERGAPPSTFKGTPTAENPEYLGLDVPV
phosphorylated EGFR (pEGFR), sequence (P00533 25-1210): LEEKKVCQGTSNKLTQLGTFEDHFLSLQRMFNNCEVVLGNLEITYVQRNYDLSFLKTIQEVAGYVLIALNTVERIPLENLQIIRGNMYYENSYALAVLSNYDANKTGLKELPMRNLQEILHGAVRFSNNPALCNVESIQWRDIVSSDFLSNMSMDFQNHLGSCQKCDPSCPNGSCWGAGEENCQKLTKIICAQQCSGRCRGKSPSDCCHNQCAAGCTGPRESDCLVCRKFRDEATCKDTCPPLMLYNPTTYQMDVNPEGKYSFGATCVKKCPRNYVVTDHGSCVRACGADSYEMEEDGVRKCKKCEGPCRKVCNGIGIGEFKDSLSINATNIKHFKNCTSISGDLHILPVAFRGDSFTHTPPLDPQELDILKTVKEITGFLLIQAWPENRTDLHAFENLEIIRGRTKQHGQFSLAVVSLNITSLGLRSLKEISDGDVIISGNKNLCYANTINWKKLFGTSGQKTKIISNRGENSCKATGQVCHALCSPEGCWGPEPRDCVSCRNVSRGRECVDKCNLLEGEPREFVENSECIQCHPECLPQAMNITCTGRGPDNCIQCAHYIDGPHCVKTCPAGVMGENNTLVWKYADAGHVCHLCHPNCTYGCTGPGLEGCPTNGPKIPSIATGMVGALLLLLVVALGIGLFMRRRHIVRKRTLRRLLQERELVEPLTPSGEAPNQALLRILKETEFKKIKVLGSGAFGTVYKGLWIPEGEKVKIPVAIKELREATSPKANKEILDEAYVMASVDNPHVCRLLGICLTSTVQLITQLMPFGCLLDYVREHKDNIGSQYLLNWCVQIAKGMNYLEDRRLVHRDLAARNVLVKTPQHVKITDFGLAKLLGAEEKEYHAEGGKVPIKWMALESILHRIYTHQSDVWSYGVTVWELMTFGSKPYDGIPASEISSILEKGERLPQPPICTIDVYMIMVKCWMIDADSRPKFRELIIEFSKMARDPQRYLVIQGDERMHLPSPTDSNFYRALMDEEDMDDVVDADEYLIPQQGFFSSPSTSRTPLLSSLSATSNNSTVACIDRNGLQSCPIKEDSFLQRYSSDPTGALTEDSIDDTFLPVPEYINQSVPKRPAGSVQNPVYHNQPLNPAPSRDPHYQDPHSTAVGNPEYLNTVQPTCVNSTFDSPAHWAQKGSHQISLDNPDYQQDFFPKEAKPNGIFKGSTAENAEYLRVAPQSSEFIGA

As for `Cc1cc(Nc2ncnc3cc4c(nc23)N2CCN(C(=O)/C=C/[C@@H](C)N(C)C)C(CO4)C2)ccc1Oc1ccn2ncnc2c1` (stereo in doubt) [Compound 29, (4R,E)-1-((10S)-4-((4-([1,2,4]triazolo[1,5-a]pyridin-7-yloxy)-3-methylphenyl)amino)-7,8,10,11-tetrahydro-9H-6,10-methanopyrimido[4′,5′:5,6]pyrido[3,2-b][1,4,7]oxadiazonin-9-yl)-4-(dimethylamino)pent-2-en-1-one], the IC50 is 16.8 nM in experiment [1] and above 10000 nM in experiment [2].

For `Cc1cc(Nc2ncnc3cc4c(nc23)N2CCN(C(=O)/C=C/[C@@H](C)N(C)C)C(CO4)C2)c(F)cc1Oc1ccn2ncnc2c1` (stereo in doubt) [Compound 50, (4R,E)-1-((10S)-4-((4-([1,2,4]triazolo[1,5-a]pyridin-7-yloxy)-2-fluoro-5-methylphenyl)amino)-7,8,10,11-tetrahydro-9H-6,10-methanopyrimido[4′,5′:5,6]pyrido[3,2-b][1,4,7]oxadiazonin-9-yl)-4-(dimethylamino)pent-2-en-1-one], the IC50 in experiment [1] was 72.4 nM; in experiment [2], above 10000 nM.

Consider `Cc1cc(Nc2ncnc3cc4c(nc23)N2CCN(C(=O)/C=C/CN(C)C)C(CO4)C2)ccc1Oc1ccn2ccnc2c1` (stereo in doubt) [Compound 34, (E)-4-(dimethylamino)-1-((10S)-4-((4-(imidazo[1,2-a]pyridin-7-yloxy)-3-methylphenyl)amino)-7,8,10,11-tetrahydro-9H-6,10-methanopyrimido[4′,5′:5,6]pyrido[3,2-b][1,4,7]oxadiazonin-9-yl)but-2-en-1-one], for which the results for the IC50 in experiment [1] and in experiment [2] were 17.7 nM and 465 nM, respectively.

Consider `CC#CC(=O)N1CCN2CC1COc1cc3ncnc(Nc4ccc(Oc5ccc6c(c5)ncn6C)c(C)c4)c3nc12` (stereo in doubt) [Compound 16, 1-((10S)-4-((3-methyl-4-((1-methyl-1H-benzo[d]imidazol-5-yl)oxy)phenyl)amino)-7,8,10,11-tetrahydro-9H-6,10-methanopyrimido[4′,5′:5,6]pyrido[3,2-b][1,4,7]oxadiazonin-9-yl)but-2-yn-1-one], for which the IC50 is 242 nM in experiment [1] and above 10000 nM in experiment [2].

Turning to `Cc1cc(Nc2ncnc3cc4c(nc23)N2CCN(C(=O)/C=C/CN(C)C)CC(CO4)C2)ccc1Oc1ccn2ncnc2c1` (centres unmarked) [Compound 57, (E)-1-(4-((4-([1,2,4]triazolo[1,5-a]pyridin-7-yloxy)-3-methylphenyl)amino)-7,8,11,12-tetrahydro-6,11-methanopyrimido[4,5′:5,6]pyrido[3,2-b][1,4,7]oxadiazecin-9 (10H)-yl)-4-(dimethylamino)but-2-en-1-one], the IC50 in experiment [1] is 32.8 nM; in experiment [2], above 10000 nM.

On to `CN(C)C/C=C/C(=O)N1CCN2CC1COc1cc3ncnc(Nc4ccc(Oc5ccn6ncnc6c5)cc4)c3nc12` (stereo in doubt) [Compound 31, (E)-1-((10S)-4-((4-([1,2,4]triazolo[1,5-a]pyridin-7-yloxy)phenyl)amino)-7,8,10,11-tetrahydro-9H-6,10-methanopyrimido[4′,5′:5,6]pyrido[3,2-b][1,4,7]oxadiazonin-9-yl)-4-(dimethylamino)but-2-en-1-one], for which the values for the IC50 in experiment [1] and in experiment [2] were 18.5 nM and above 10000 nM, respectively.

`Cc1cc(Nc2ncnc3cc4c(nc23)N2CCN(C(=O)/C=C/C3CN(C)C3)C(CO4)C2)ccc1Oc1ccn2ncnc2c1` (stereo in doubt) [Compound 45, (E)-1-((10S)-4-((4-([1,2,4]triazolo[1,5-a]pyridin-7-yloxy)-3-methylphenyl)amino)-7,8,10,11-tetrahydro-9H-6,10-methanopyrimido[4′,5′:5,6]pyrido[3,2-b][1,4,7]oxadiazonin-9-yl)-3-(1-methylazetidin-3-yl)prop-2-en-1-one]: the IC50 in experiment [1] was 27.3 nM; in experiment [2], above 10000 nM.
